Measurements published in patent publication US9474793B2, “Vaccines and methods for prevention and treatment of drug-resistant HIV-1 and hepatitis B virus” (The United States of America, as represented by the …, priority 2005, dated 2016).
“And” between values parts separate entries of the source, which are not always exact repeats. Identical values can stand only once. “Also recorded” adds a separate entry of the source. Like-named read-outs stand apart in the source and are kept apart here.

Tests used:
RT-WT specific CTL lines = test: Recognition of RT-variant peptides by RT-WT-specific CTL lines (FIG. 2); conditions: E/T ratio 10:1
Procedure: (§1) CTL activity was measured using a 4-hr assay with ^51Cr-labeled target cells (Okazaki et al., J Immunol 2003, 171(5):2548-2555). Target cells (10^6) were pulsed in 100 μl of CTM and 150 μCi ^51Cr for 1.5 hr, washed three times, and added at 3,000 cells/well to the 96-well round-bottom plates with different peptide concentrations. Effector cells were introduced 2 h later. Then, the supernatants were harvested and counted following an additional 4-hr incubation. The percentage of specific ^51Cr release was calculated as 100×(experimental release−spontaneous release)/(Maximum release−spontaneous release). Spontaneous release was determined from target cells incubated in the absence of effector cells. Maximum release was determined in the presence of 0.1 M HCl. C1R.AAD cell lines served as target cells.

HLA-A2.1 molecules [1] = molecular target: T1, HLA-A2.1 molecules (Homo sapiens, UniProt P04439, D140Y/D185E/D98H/E176V/E277Q/G131W/G231S/I119V/I121R/I166T/I218V/L300P/L318F/N151K/N90K/P208A/P217A/Q86G/Q94H/R138H/R169H/T345S); conditions: Okazaki et al. 2003; cited from earlier work
[2] = system: RT-WT peptide-pulsed C1R.AAD target cells; test: 51Cr-release cytotoxicity assay: recognition of RT-WT by peptide-specific CTL lines from HHD-transgenic mice; conditions: FIGS. 3-5; E/T ratio 10:1
Procedure: Mice more than eight weeks of age were immunized subcutaneously in the base of the tail with 100 μl of an emulsion containing 1:1 incomplete Freund's adjuvant (IFA) and PBS solution with antigens and cytokines (50 nmol CTL epitope, 50 nmol HBV core 128-140 helper epitope, 5 μg of IL-12 and 5 μg of granulocyte-macrophage colony stimulating factor). Mice were boosted two weeks later. Spleens were removed 10-14 days after the boost. Immune spleen cells (2.5×10^6/well) were stimulated in 24-well plates with autologous spleen cells (5×10^6/well) pulsed for 2 h with 10 μM CTL epitope peptide in CTM supplemented with 10% T-Stim (Collaborative Biochemical Products, Bedford, Mass.). Following more than 4 in vitro stimulations with peptide-pulsed syngeneic spleen cells, CTL lines were maintained by weekly restimulation of 1×10^6 CTL/well with 4×10^6 peptide pulsed irradiated (3,300 rads) gynogeneic spleen cells as feeders, or by weekly stimulation of 1×10^6 CTL/well with 3.8×10^6 peptide pulsed irradiated C57BL/6 spleen cells and 1-3×10^5 peptide pulsed and irradiated (15,000 rad) Jurkat-A2K^b transfectant cells.
as §1

[3] = format: physicochemical
Text: CTL peptides of the present invention, including the CTL peptide […] (SEQ ID NO:6; […]. The CTL peptide […] (SEQ ID NO:6; […]. The recommended storage of intact vials of the CTL peptide […] (SEQ ID NO:6; […].
Further, the CTL peptide […]

[4] = format: physicochemical; conditions: mixed with Montanide ISA-51 (300 μg dose)
Text: When the CTL peptide […] (SEQ ID NO:6; […]

HLA-A2.1 molecules [5] = molecular target: T1, HLA-A2.1 molecules; format: binding
[6] = cited from earlier work
HIV = conditions: patients infected with HIV; cited from earlier work

With “VIYQYMDDL (conserved HLA-A2-restricted cytotoxic T lymphocyte (CTL) epitope in human immunodeficiency virus 1 (HIV-1) drug-sensitive wild-type reverse transcriptase (RT-WT), residues 179-187)” the “Recognition of the peptide by RT-WT-specific CTL” value (RT-WT specific CTL lines) was “recognized”.

In the case of VLYQYMDDV [RT-2L9V], the “binding ability to HLA-A2 relative to RT-WT” value (HLA-A2.1 molecules [1]) is given as “approximately 8 fold” and the “Recognition of RT-WT by the peptide-specific CTL line” value [2] is given as “most strongly among all four CTL types”.

With VLYQYVDDV the “freeze-thaw-freeze cycles through which the peptide is stable” value [3] was “at least two”, the “degradation by HPLC” value ([3]; 1.6 mg/ml, 4° C. and 22° C., by 7 days) was “No degradation” and the “loss by adsorption onto the borosilicate glass vial” value ([3]; at the concentrations to be used for vialing) was “not significantly lost”. The storage stability ([3]; controlled room temperature (15° C.-30° C.)) was 3 months, the storage stability ([3]; freezer (−10° C. to −25° C. and −70° C.)) was “at least 18 months” and the storage stability ([3]; refrigerator (2° C.-8° C.)) was “at least 9 months”. The “physical stability of the emulsion” value [4] was 3 h and the “Recognition of RT-WT by the peptide-specific CTL line” value [2] was “to some extent; also recorded: slightly weaker than that of RT-2L9V specific CTL”.

In the case of YLYQYVDDV, the “FI0.5 (concentration required to give an FI of 0.5)” value (HLA-A2.1 molecules [5]) is reported as 0.245 µM and 0.176 to 0.245 µM.

For “sargramostim: glycosylated, recombinant human sargramostim; position 23 arginine replaced with leucine, expressed in yeast”, the stability after reconstitution ([6]; 250 μg vial reconstituted with bacteriostatic water for injection, refrigerator) is listed as 20 days, the “stability after initial entry into the vial” value ([6]; 500 μg/ml liquid) is listed as “up to 20 days” and the “effect on viral load” value (HIV) is listed as “slight decrease”. For the same substance, the “impact on the CD4 count” value (HIV) was “little impact” and the safety (HIV) was “safe”.
